Assay [1] concerns the target T1, cloned human NMB-preferring receptor (BB1) (Homo sapiens, UniProt P28336).
T1 construct: expressed in transfected cells
Kind of assay: Receptor binding assay, cloned human NMB-preferring receptor (BB1), [125I][Tyr4]bombesin displacement. To be noted: CHO-K1 cell membranes, 60 minutes incubation. Here is the method: (§1) For binding experiments, cells were harvested by trypsinization, and stored frozen at -70° C. in Ham's F12 culture medium containing 5% DMSO until required. On the day of use, cells were thawed rapidly, diluted with an excess of culture medium, and centrifuged for 5 minutes at 2000 g. Cells were resuspended in 50 mM Tris-HCl assay buffer (pH 7.4 at 21° C., containing 0.02% BSA, 40 μg/ml bacitracin, 2 μg/mL chymostatin, 4 μg/mL leupeptin, and 2 μM phosphoramidon), counted, and polytronned (setting 5, 10 sec) before centrifuging for 10 minutes at 28,000 g. The final pellet was resuspended in assay buffer to a final cell concentration of 1.5×10^5 /mL. […] Radioactivity bound was determined using a gamma counter.

Assay [2] concerns the target T2, cloned human GRP-preferring receptor (BB2) (Homo sapiens, UniProt P30550).
T2 construct: expressed in transfected cells
The experiment in a line: Receptor binding assay, cloned human GRP-preferring receptor (BB2), [125I][Tyr4]bombesin displacement. To be noted: CHO-K1 cell membranes, 90 minutes incubation. Here is the method:
as §1, with “The compounds of the invention have been evaluated in receptor binding assays which measure the affinity of the novel compounds in a cloned human NMB-preferring receptor (BB1) assay and in a cloned human GRP-preferring receptor (BB2) assay. Protocol for Binding Assays […] For” for “For”

Assay [3] deals with T3, cloned human NMB-preferring receptors expressed in CHO cells (Homo sapiens, UniProt P28336).
T3 construct: functional calcium (Fura-2) and Cytosensor acidification assays
T3 sequence (P28336 whole entry): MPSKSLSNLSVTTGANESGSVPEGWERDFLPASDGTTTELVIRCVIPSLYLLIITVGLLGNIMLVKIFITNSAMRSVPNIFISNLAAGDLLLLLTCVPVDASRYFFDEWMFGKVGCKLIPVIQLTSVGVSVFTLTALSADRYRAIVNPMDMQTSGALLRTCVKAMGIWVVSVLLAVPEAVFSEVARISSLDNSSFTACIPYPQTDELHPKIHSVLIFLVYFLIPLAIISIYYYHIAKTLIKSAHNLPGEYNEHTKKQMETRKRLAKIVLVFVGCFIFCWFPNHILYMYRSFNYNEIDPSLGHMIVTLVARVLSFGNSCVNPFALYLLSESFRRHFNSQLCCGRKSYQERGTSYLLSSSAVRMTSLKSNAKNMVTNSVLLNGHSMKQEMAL
The experiment in a line: Measurement of extracellular acidification (CYTOSENSOR) in CHO-NMB cells. Type of assay: cell-based. To be noted: NMB-preferring receptor (BB1), antagonist 30 minutes prior to agonist, 37° C. An excerpt: The compounds of the invention have been tested in in vitro functional assays using cloned human NMB-preferring receptors expressed in CHO cells.
Protocols for functional assays:
2. Measurement of extracellular acidification (CYTOSENSOR)
This acidification rate is detected as a change in potential across a silicon light addressable sensor, during periods of media cessation (McConnell, et al., 1992).
CHO-NMB Cells seeded on polycarbonate microporous capsule cups were placed insensor chambers at 37° C. inside the microphysiometer, and maintained by a flow of nonbuffering Ham's F12 nutrient media (growth media without NaHCO3, pH 7.3-7.4) at approximately 120 μL/min. The flow was halted for 22 seconds at the end of each 2 minute repeated cycle, and the rate of acidification (μ volts/sec) measured for 15 seconds during that period.
Agonists were introduced sequentially every 28 to 30 minutes to the perfusing media, 20 seconds before flow-off periods, and removed after two rate measurements via the automatic valve-switch.
The effects of various antagonists were determined after continuous perfusion 30 minutes prior to, and throughout the application of agonists. All agents were applied at the working pH of the media.

pKi: −log10 of the molar value. Bounds are passed on as bounds.

T1 sequence (P28336 whole entry): as above
T2 sequence (P30550 whole entry): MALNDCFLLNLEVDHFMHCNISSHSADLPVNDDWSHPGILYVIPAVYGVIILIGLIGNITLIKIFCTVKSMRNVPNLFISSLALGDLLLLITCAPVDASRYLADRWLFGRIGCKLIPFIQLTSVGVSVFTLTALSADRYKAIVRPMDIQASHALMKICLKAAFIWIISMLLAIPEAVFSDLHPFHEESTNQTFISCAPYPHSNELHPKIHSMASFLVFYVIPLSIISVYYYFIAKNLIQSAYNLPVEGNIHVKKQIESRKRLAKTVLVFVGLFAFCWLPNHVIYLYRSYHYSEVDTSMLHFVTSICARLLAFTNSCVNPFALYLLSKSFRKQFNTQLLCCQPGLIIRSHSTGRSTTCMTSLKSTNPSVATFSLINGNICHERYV

`CC(C)c1cccc(C(C)C)c1NC(=O)NC(C)(Cc1c[nH]c2ccccc12)C(=O)N[C@H]1COC(C)(C)O[C@H]1c1ccccc1` (single isomer, unassigned) [Example 25] gave a pKi in assay [1] of 7.02.
Take `CC(C)c1cccc(C(C)C)c1NC(=O)N[C@](C)(Cc1c[nH]c2ccccc12)C(=O)N[C@H]1CCCc2ccccc21` [Example 2, 2-[3-(2,6-Diisopropyl-phenyl)-ureido]-3-(1H-indol-3-yl)-2-methyl-N-(1,2,3,4-tetrahydro-naphthalen-1-yl)-propionamide]: the pKi in assay [1] is 7.85; in assay [2], below 5.00. Besides, in assay [3], the “Acidification Response appKB” value worked out at 54.3.
Regarding `CC(C)c1cccc(C(C)C)c1NC(=O)N[C@](C)(Cc1c[nH]c2ccccc12)C(=O)N[C@H]1CCc2ccccc21` [Example 3, 2-[3-(2,6-Diisopropyl-phenyl)-ureido]-N-indan-1-yl-3-(1H-indol-3-yl)-2-methyl-propionamide], the pKi in assay [1] was 6.89; in assay [2] it was below 5.00.
The like results for `CC(C)c1cccc(C(C)C)c1NC(=O)NC(C)(Cc1c[nH]c2ccccc12)C(=O)NCCC1CCCCC1` (stereo not drawn) [Example 4, N-(2-Cyclohexyl-ethyl)-2-[3-(2,6-diisopropyl-phenyl)-ureido]-3-(1H-indol-3-yl)-2-methyl-propionamide] were, in that order, 6.67 and below 5.00.
The like results for `CC(C)c1cccc(C(C)C)c1NC(=O)NC(C)(Cc1c[nH]c2ccccc12)C(=O)Nc1ccccc1` (stereo not drawn) [Example 5] were, in that order, 6.03 and below 5.00.
The like results for `CC(C)c1cccc(C(C)C)c1NC(=O)N[C@](C)(Cc1c[nH]c2ccccc12)C(=O)N[C@H]1CCCC[C@H]1c1ccccc1` [Example 6, 2-[3-(2,6-Diisopropyl-phenyl)-ureido]-3-(1H-indol-3-yl)-2-methyl-N-(2-phenyl-cyclohexyl)-propionamide] were, in that order, 6.11 and below 5.00.
For `CC(C)c1cccc(C(C)C)c1NC(=O)NC(Cc1c[nH]c2ccccc12)C(=O)N(C)CC1CCCCC1` (stereo not drawn) [Example 7, N-Cyclohexylmethyl-2-[3-(2,6-diisopropyl-phenyl)-ureido]-3-(1H-indol-3-yl)-N-methyl-propionamide], the pKi is 6.31 in assay [1] and below 5.00 in assay [2].
The like results for `CC(Cc1c[nH]c2ccccc12)(NC(=O)Nc1ccc([N+](=O)[O-])cc1)C(=O)NCC1CCCCC1` (stereo not drawn) [Example 8] were, in that order, 8.52 and 6.35.
`CC(Cc1c[nH]c2ccccc12)(NC(=O)Nc1ccc([N+](=O)[O-])cc1)C(=O)NCC1(O)CCCCC1` (stereo not drawn) [Example 9]: the pKi in assay [1] is 8.48; in assay [2], 5.95.
The like results for `CC(C)c1cccc(C(C)C)c1NC(=O)N(C)C(Cc1c[nH]c2ccccc12)C(=O)NCC1CCCCC1` (stereo not drawn) [Example 10, N-Cyclohexylmethyl-2-[3-(2,6-diisopropyl-phenyl)-1-methyl-ureido]-3-(1H-indol-3-yl)-propionamide] were, in that order, 6.12 and 5.84.
The like results for `CC(C)c1cccc(C(C)C)c1NC(=O)N[C@@](C)(Cc1c[nH]c2ccccc12)C(=O)NCC1CCCCC1` [Example 11, N-Cyclohexylmethyl-2-[3-(2,6-diisopropyl-phenyl)-ureido]-3-(1H-indol-3-yl)-2-methyl-propionamide] were, in that order, 6.99 and below 5.00.
Turning to `C[C@H](NC(=O)N[C@@](C)(Cc1c[nH]c2ccccc12)C(=O)NCC1(c2ccccn2)CCCCC1)c1ccc([N+](=O)[O-])cc1` [Example 12], the pKi was 9.15 in assay [1] and 7.22 in assay [2].
`C[C@@](Cc1c[nH]c2ccccc12)(NC(=O)Nc1ccc(C#N)cc1)C(=O)NCC1(c2ccccn2)CCCCC1` [Example 13]: the values for the pKi in assay [1] and in assay [2] were 9.52 and 7.42, respectively.
For the compound `C[C@@](Cc1c[nH]c2ccccc12)(NC(=O)Nc1ccc(C(F)(F)F)cc1)C(=O)NCC1(c2ccccn2)CCCCC1` [Example 15], the pKi in assay [1] was 8.70; in assay [2] it was 6.78.
The like results for `CCOC(=O)c1ccc(NC(=O)N[C@@](C)(Cc2c[nH]c3ccccc23)C(=O)NCC2(c3ccccn3)CCCCC2)cc1` [Example 16] were, in that order, 8.52 and 6.85.
In the case of `COc1cccc(OC)c1NC(=O)NC(C)(Cc1c[nH]c2ccccc12)C(=O)NCC1CCCCC1` (stereo not drawn) [Example 17, N-Cyclohexylmethyl-2-[3-(2,6-dimethoxy-phenyl)ureido]-3-(1H-indol-3-yl)-2-methyl-propionamide], the pKi in assay [1] is 5.48; in assay [2] it was 5.53.
The like results for `CC(C)c1cccc(C(C)C)c1NC(=O)[C@H](Cc1c[nH]c2ccccc12)NC(=O)NC(c1ccccc1)C(C)(C)C` (stereo partly drawn) [Example 18, (S)-N-(2,6-Diisopropyl-phenyl)-2-[3-(2,2-dimethyl-1-phenyl-propyl)-ureido]-3-(1H-indol-3-yl)-propionamide] were, in that order, 7.60 and below 5.00.
`CC(C)c1cccc(C(C)C)c1NC(=O)NC(C)(Cc1cccc[n+]1[O-])C(=O)NCC1(c2ccccn2)CCCCC1` (stereo not drawn) [Example 19, 2-[3-(2,6-Diisopropyl-phenyl)-ureido]-2-methyl-3-(1-oxy-pyridin-2-yl)-N-(1-pyridin-2-yl-cyclohexylmethyl)-propionamide]: the pKi in assay [1] was 8.52; in assay [2], 6.12.
The like results for `CC(C)c1cccc(C(C)C)c1NC(=O)NC(C)(Cc1ccccc1C(F)(F)F)C(=O)NCC1(c2ccccn2)CCCCC1` (stereo not drawn) [Example 20] were, in that order, 7.48 and below 5.00.
As to `CC(C)c1cccc(C(C)C)c1NC(=O)NC(C)(Cc1ccccc1[N+](=O)[O-])C(=O)NCC1(c2ccccn2)CCCCC1` (stereo not drawn) [Example 21], the pKi in assay [1] is 7.70; in assay [2], 5.59.
Turning to `CC(C)c1cccc(C(C)C)c1NC(=O)NC(C)(Cc1ccccn1)C(=O)NCC1(c2ccccn2)CCCCC1` (stereo not drawn) [Example 22, 2-[3-(2,6-Diisopropyl-phenyl)-ureido]-2-methyl-3-pyridin-2-yl-N-(1-pyridin-2-yl-cyclohexylmethyl)-propionamide], the pKi in assay [1] was 7.46; in assay [2], 6.23.
The like results for `CC(C)c1cccc(C(C)C)c1NC(=O)NC(Cc1c[nH]cn1)C(=O)NCC1(c2ccccn2)CCCCC1` (stereo not drawn) [Example 23] were, in that order, 7.80 and 5.27.
On to `CC(C)c1cccc(C(C)C)c1N(C)C(=O)NC(C)(Cc1c[nH]c2ccccc12)C(=O)NCC1CCCCC1` (stereo not drawn) [Example 24], for which the results for the pKi in assay [1] and in assay [2] were 6.38 and below 5.00, respectively.
Take `Cc1nc(C2(CNC(=O)C(C)(Cc3c[nH]c4ccccc34)NC(=O)Nc3ccc([N+](=O)[O-])cc3)CCCCC2)cs1` (stereo not drawn) [Example 26]: the pKi was 9.60 in assay [1] and 7.54 in assay [2].
In turn, `COc1ccc(C2(CNC(=O)C(C)(Cc3c[nH]c4ccccc34)NC(=O)Nc3ccc([N+](=O)[O-])cc3)CCCCC2)nc1` (stereo not drawn) [Example 27] gave a pKi in assay [2] of 9.00.
On to `CN(C)Cc1ccc(C2(CNC(=O)C(C)(Cc3c[nH]c4ccccc34)NC(=O)Nc3ccc([N+](=O)[O-])cc3)CCCCC2)cc1` (stereo not drawn) [Example 28], for which the pKi in assay [1] is 9.09; in assay [2], 7.10.
For the compound `CC(Cc1c[nH]c2ccccc12)(NC(=O)Nc1ccc([N+](=O)[O-])cc1)C(=O)NCC(c1ccccc1)N1CCCCC1` (stereo not drawn) [Example 29], the negative logarithm of the Ki (pKi) in assay [1] is 8.00; in assay [2], below 5.00.
For the compound `CC(Cc1c[nH]c2ccccc12)(NC(=O)Nc1ccc([N+](=O)[O-])cc1)C(=O)NCC1(c2c[nH]cn2)CCCCC1` (stereo not drawn) [Example 31], the figures for the pKi in assay [1] and in assay [2] were 9.77 and 7.68, respectively.
The like results for `COc1ccc(C2(CNC(=O)C(C)(Cc3c[nH]c4ccccc34)NC(=O)Nc3ccc(C#N)cc3)CCCCC2)nc1` (stereo not drawn) [Example 32] were, in that order, 9.77 and 7.70.

The values are drawn from patent US6194437A (Warner-Lambert Company, priority 1999, dated 2001).
